This is an account of results in patent US7556935B2 (Dana-Farber Cancer Institute, Inc., priority 2001, dated 2009).

Like-named read-outs stand apart in the source and are kept apart here.

For experiment [1], the system named is c-Abl. The experiment in a line: c-Abl levels in the ER fraction, ER stress. The class given is cell-based. On the procedure:
(§1) Cells were treated with A23187 (Sigma) or Brefeldin A (Sigma).
(§2) Isolation of the ER fraction: Cells were washed with PBS, lysed in homogenization buffer (50 mM Tris-HCl, pH 8.0, 1 mM b-mercaptoethanol, 1 mM EDTA, 0.32 M sucrose and 0.1 mM PMSF), and then centrifuged at 5,000×g for 10 minutes. The supernatant was collected and centrifuged at 105,000×g for 1 hour. […] The resulting supernatant was used as the ER fraction.

The test system of the next experiment is grp78. The experiment in a line: grp78 expression in the ER fraction, ER stress. The class given is cell-based. On the procedure: as §1, §2
Experiment [2] deals with c-Abl. Briefly: c-Abl targeting to mitochondria under ER stress, immunofluorescence and immunoblot. The settings on record: mitochondrial fraction. The class given is cell-based. Here is the method: as §1
Digital confocal immunofluorescence microscope: Cells grown on poly-D-lysine coated glass coverslips were fixed (3.7% formaldehyde in PBS, pH 7.4; 10 minutes), permeabilized (0.2% Triton X-100; 10 min), blocked for 30 minutes in media containing serum. After rinsing with PBS, immunostaining was performed by incubating the cells with 50 ng/slide of anti-c-Abl (K-12 rabbit polyclonal; Santa Cruz) and anti-grp-78 (C-20 goat polyclonal; Santa Cruz). For c-Abl and calreticulin staining, cells were incubated first with anti-c-Abl alone for 1 hour followed by blocking for 30 minutes in media containing serum. After washing with PBS, cells were then incubated with anti-calreticulin (rabbit polyclonal; StressGen). Finally, cells were incubated with a 1:250 dilution of CY-3 or Fluorescein (FITC)-conjugated anti-rabbit or anti-goat secondary antibodies (Jackson ImmunoResearch) for 1 hour. Mitochondria were stained with 0.006 ng/slide Mitotracker Green FM (Molecular Probes). Nuclei were stained with 4,6-diamino-2-phenylindole (DAPI; 1 mg/ml in PBS). Coverslips were mounted onto slides with 0.1 M Tris (pH 7.0) in 50% glycerol. Cells were visualized by digital confocal immunofluorescence and images were captured with cooled CCD camera mounted on a Zeiss Axioplan 2 microscope. Images were deconvolved using Slidebook software (Intelligent Imaging Innovations, Inc., Denver, Colo.).
(§3) The supernatant was collected and centrifuged at 10,000×g for 10 minutes. […] Protein concentration was determined by the Bio-Rad protein estimation kit.

The subject of experiment [3] is c-Abl. Briefly: c-Abl levels in cytoplasmic and nuclear fractions, ER stress. The class given is cell-based. An excerpt:
Isolation of cytoplasmic and nuclear fractions: The cytoplasmic and nuclear fractions were isolated as described in Example 1.

The test system of experiment [4] is c-Abl. Briefly: Mitochondrial c-Abl kinase activity, GST-Crk(120-225) phosphorylation, ER stress. The class given is cell-based. The settings on record: anti-c-Abl immunoprecipitates of mitochondrial fraction. On the procedure: as §3
Analysis of c-Abl activity: Cell lysates were prepared as described in Example 1 and subjected to immunoprecipitation with anti-c-Abl (K-12; Santa Cruz). The immunoprecipitates were resuspended in kinase buffer (see Example 1) containing […] of [g-32P]ATP and GST-Crk(120-225) or GST-Crk(120-212) for 15 minutes at 30° C. The reaction products were analyzed by SDS-PAGE and autoradiography.

A further experiment has as its system MEFs. The experiment in a line: Apoptosis by sub-G1 DNA in MEFs under ER stress. The class given is cell-based, mouse. To be noted: c-Abl−/− cells. Here is the method:
Apoptosis assays: DNA content was assessed by staining ethanol-fixed cells with propidium iodide and monitoring by FACScan (Becton-Dickinson).

Experiment [5] concerns c-Abl. Briefly: c-Abl immune complex kinase assay, phosphorylation of GST-Crk(120-225), COS7 cells. The class given is cell-based. The settings on record: 30 mM NAC. Here is the method: Cell culture: COS7 cells and mouse embryonic fibroblasts (MEFs) derived from wild-type and c-Abl^−/− mice were cultured in Dulbecco's modified Eagle's medium containing 10% heat-inactivated fetal calf serum, 2 mM L-glutamine, 100 units/ml penicillin and 100 μg/ml streptomycin. DLD1 cells were grown as described (Polyak et al. (1997) Nature 389, 300-305). Cells were treated with H2O2 (Sigma), 30 mM N-acetyl-L-cysteine (NAC; Sigma) or 10 μM cis-platinum (Sigma).
(§4) Analysis of kinase activity: Cell lysates were prepared in lysis buffer (10 mM Tris-HCl, pH 7.5, 10 mM NaCl, 1 mM DTT, 0.1 mM EDTA, 3 mM MgCl2, 0.5 mM PMSF, 5 μg/ml leupeptin) containing 0.5% Nonidet P-40 and subjected to immunoprecipitation as described (Kharbanda et al. (1997) Nature 386, 732-735) with anti-c-Abl (sc-23; Santa Cruz) or mouse IgG (Santa Cruz). The immunoprecipitates were resuspended in kinase buffer (20 mM HEPES, pH 7.4, 10 mM MgCl2, 10 mM MnCl2) containing 2.5 μCi [g-32P]ATP and GST-Crk(120-225) or GST-Crk(120-212) for 20 minutes at 30° C. Anti-PKCd (sc-937; Santa Cruz) and anti-ERK1 (sc-93; Santa Cruz) immunoprecipitates were analyzed by using histone H1 and myelin basic protein (Upstate Biotecnology Inc.), respectively, as substrates. The reaction products were analyzed by SDS-PAGE and autoradiography.

A further experiment relates to cytochrome c. The experiment in a line: Cytochrome c release in U-937 cells, immunoblot of cytoplasmic fractions. The class given is cell-based, human. To be noted: for effect on H2O2-induced release of cytochrome c: U-937 cells pretreated with NAC (30 mM) or rottlerin (10 µM); for cytochrome c release: U-937 cells, agent alone. On the procedure:
(§5) Cells were also treated with 10 μM rottlerin (Calbiochem).
(§6) Transfections were performed with Superfect (Qiagen).
(§7) The cells were disrupted by Douce homogenization.
(In general: Immunoblotting shows a protein as a band on a membrane.)

For experiment [6], the system named is c-Abl. Briefly: c-Abl translocation to mitochondria in MEFs, oxidative stress. The class given is cell-based, mouse. To be noted: MEFs. On the procedure:
Cells were treated with 1 mM H2O2 (Sigma) and 30 mM N-acetyl-L-cysteine (NAC; Sigma). Transient transfections were performed in the presence of calcium phosphate.
Immunofluorescence microscopy: Cells were plated onto poly D-lysine coated glass coverslips 1 day prior to H2O2 treatment (1 hour) and then fixed with 3.7% formaldehyde/PBS (pH 7.4) for 10 minutes. Cells were washed with PBS, permeabilized with 0.2% Triton X-100 for 10 minutes, washed again and incubated for 30 minutes in complete medium. The coverslips were then incubated with […] of anti-c-Abl (K-12) for 1 hour followed by Texas Red-goat anti-rabbit Ig (H+L) conjugate (Molecular Probes, Eugene, Oreg.). Mitochondria were stained with 100 nM Mitotracker Green FM (Molecular Probes, OR). Nuclei were stained with 4,6-diamino-2-phenylindole (DAPI; 1 mg/ml in PBS). Coverslips were mounted onto slides with 0.1 M Tris (pH 7.0) in 50% glycerol. Cells were visualized by digital confocal immunofluorescence and images were captured with a cooled CCD camera mounted on a Zeiss Axioplan 2 microscope. Images were deconvolved using Slidebook software (Intelligent Imaging Innovations, Inc., Denver, Colo.).
Protein concentration was determined by the Bio-Rad protein estimation kit.
Preparation of cell lysates: Whole cell lysates (WCL) were prepared as described (Kharbanda et al. (1995) Nature 376, 785-788) and analyzed for protein concentration.
Immunoprecipitation and immunoblot analysis. Soluble proteins ([…]) were incubated with anti-c-Abl (K-12; Santa Cruz Biotechnology) for 1 hour and precipitated with protein A-sepharose for 30 minutes. Immunoprecipitates and lysates ([…]) were resolved by SDS-PAGE and analyzed by immunoblotting with anti-c-Abl (24-11; Santa Cruz), anti-HSP60 (Stressgen, Victoria, British Columbia), anti-b-actin (Sigma) anti-PCNA (Calbiochem), anti-PDGF receptor (Oncogene) and anti-PKCd (Santa Cruz).

Experiment [7] addresses T1, PKCd (Homo sapiens, UniProt Q05655). Briefly: PKCd translocation to mitochondria in U-937 cells, immunoblot of fractions. Set-up: subjecting cytoplasmic and mitochondrial fractions to immunoblotting with anti-PKC antibodies; endogenous in cells; host or cells: U-937. The class given is cell-based. On the procedure:
as §5
Mitochondria were stained with 0.006 ng/slide of Mitotracker Green FM (Molecular Probes). The slides were analyzed using a Zeiss Auxiphot fluorescence microscope coupled to a CCD camera and a power Macintosh 8100. Image analysis was performed using the IPLab Spectrum 3.1 software (Signal Analytics).
as §6, §7
(§8) The supernatants (S1) were collected.
Mitochondria were stained with 0.006 ng/slide of Mitotracker Green FM (Molecular Probes). The slides were analyzed with a Zeiss Auxiphot fluorescence microscope coupled to a CCD camera and a power Macintosh 8100. Image analysis was performed using the IPLab Spectrum 3.1 software (Signal Analytics).

In experiment [8] the target is T1, PKCd. To be noted: MCF-7 cells, TPA.
Protocol: Cell culture and reagents: Human U-937 myeloid leukemia cells (ATCC, Rockville, Md.) were grown in RPMI 1640 medium supplemented with 10% heat-inactivated fetal bovine serum (FBS), 100 units/ml penicillin, 100 μg/ml streptomycin, and 2 mM L-glutamine. MCF-7, MCF-7/neo, MCF-7/PKCdRD and 293T cells were grown in Dulbecco's modified Eagle's medium (DMEM) containing 10% FBS. […] Cells were also treated with 10 μM rottlerin (Calbiochem).
The test system of a further experiment is MCF-7/neo cells. Briefly: Apoptosis by sub-G1 DNA content in MCF-7/neo cells.
For a further experiment, the target named is PKCγ (Homo sapiens, UniProt P05129). Briefly: Cytoplasmic or mitochondrial PKCγ levels in U-937 cells, immunoblot. To be noted: TPA.
The next experiment relates to PKCζ. The experiment in a line: Cytoplasmic or mitochondrial PKCζ levels in U-937 cells, immunoblot. The settings on record: TPA.
In experiment [9] the test system is c-Abl. Briefly: c-Abl activity in cytoplasts devoid of nuclei. The class given is cell-based. Here is the method: as §4
The subject of another experiment is catalase. The experiment in a line: Catalase levels in MEFs. The class given is cell-based, mouse. An excerpt: As a control, degradation was inhibited when [g-S]ATP was substituted for ATP to prevent ubiquitination. […] Lactacystin, another proteosome inhibitor, was used to assess degradation of catalase in cells.
A further experiment has as its system U-937 cells. The experiment in a line: Apoptosis by sub-G1 DNA content in U-937 cells. The class given is cell-based, human.
For experiment [10], the target named is PKCd (Mus musculus, UniProt P28867). Set-up: effect on H2O2-induced translocation of PKCd to mitochondria: dose or concentration left out as unconfirmed. The settings on record: NIH3T3 cells, rottlerin. On the procedure:
as §6, §8

For experiment [11], the system named is mitochondrial transmembrane potential. Briefly: Mitochondrial transmembrane potential, Rhodamine 123 staining, MEFs. The settings on record: wild-type MEFs pretreated with cyclosporin A. Set-up: effect on H2O2-induced change in Ψ: dose or concentration left out as unconfirmed.

T1 sequence (Q05655 whole entry): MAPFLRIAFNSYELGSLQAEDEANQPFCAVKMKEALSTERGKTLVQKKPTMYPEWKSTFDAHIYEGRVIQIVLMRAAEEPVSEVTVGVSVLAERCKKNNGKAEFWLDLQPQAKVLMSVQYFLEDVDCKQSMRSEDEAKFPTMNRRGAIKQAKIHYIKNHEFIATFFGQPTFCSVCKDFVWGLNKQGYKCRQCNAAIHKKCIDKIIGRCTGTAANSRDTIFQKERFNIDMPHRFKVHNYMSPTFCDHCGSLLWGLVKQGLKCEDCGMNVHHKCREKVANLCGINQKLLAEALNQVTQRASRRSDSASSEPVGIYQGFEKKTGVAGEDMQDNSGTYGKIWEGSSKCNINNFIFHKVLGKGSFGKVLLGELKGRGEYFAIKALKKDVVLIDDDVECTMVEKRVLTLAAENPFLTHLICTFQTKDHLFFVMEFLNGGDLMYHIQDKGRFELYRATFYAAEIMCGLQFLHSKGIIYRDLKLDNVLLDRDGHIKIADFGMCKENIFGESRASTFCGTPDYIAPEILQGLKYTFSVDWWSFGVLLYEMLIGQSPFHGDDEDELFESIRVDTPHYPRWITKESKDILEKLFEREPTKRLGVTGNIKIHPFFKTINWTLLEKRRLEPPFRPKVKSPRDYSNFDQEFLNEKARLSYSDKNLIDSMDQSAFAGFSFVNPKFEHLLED
Sequence of PKCd (Mus musculus, UniProt P28867) (P28867 whole entry): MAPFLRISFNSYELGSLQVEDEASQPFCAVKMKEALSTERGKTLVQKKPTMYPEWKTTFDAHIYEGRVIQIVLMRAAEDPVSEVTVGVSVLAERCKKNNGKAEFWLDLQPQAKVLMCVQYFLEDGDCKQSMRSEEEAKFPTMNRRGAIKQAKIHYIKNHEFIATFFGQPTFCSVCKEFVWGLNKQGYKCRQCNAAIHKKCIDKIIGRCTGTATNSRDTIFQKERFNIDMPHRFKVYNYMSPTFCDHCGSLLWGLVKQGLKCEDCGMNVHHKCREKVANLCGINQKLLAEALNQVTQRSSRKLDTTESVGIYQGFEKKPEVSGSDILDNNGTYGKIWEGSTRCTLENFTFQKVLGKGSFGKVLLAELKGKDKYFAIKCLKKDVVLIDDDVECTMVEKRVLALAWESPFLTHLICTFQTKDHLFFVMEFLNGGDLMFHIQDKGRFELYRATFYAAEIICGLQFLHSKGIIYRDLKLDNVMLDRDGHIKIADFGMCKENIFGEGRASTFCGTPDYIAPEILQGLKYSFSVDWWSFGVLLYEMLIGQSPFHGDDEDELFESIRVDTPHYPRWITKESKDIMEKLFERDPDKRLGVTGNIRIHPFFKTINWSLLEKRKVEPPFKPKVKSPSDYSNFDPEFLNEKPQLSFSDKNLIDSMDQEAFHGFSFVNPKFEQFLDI

For `C[C@H]1CCC/C=C/[C@@H]2C[C@H](O)C[C@H]2[C@H](O)/C=C/C(=O)O1` [Brefeldin A], in the experiment with c-Abl [1], the “c-Abl levels in the ER fraction” value is “decreases”. Besides, in the experiment with grp78, the “expression of grp78” value is given as “increases in grp78”. In the experiment on c-Abl [2], the “c-Abl protein in the mitochondrial fraction, immunoblot” value is “increases in c-Abl protein”. Further, the “c-Abl levels in the cytoplasm or nucleus” value in the experiment on c-Abl [3] is listed as “no detectable effect”. Besides, the “mitochondrial c-Abl activity” value in the experiment with c-Abl [4] is recorded as “increases in mitochondrial c-Abl activity”. In the experiment on MEFs, the induction of apoptosis result is recorded as “abrogated”.
With `CC(=O)N[C@@H](CS)C(=O)O` [NAC, N-acetyl-L-cysteine], the “effect on H2O2-induced phosphorylation of GST-Crk(120-225) by c-Abl” value with c-Abl [5] is recorded as “inhibited”. Also, the “effect on H2O2-induced release of cytochrome c” value in the experiment on cytochrome c is reported as “blocks”. Besides, in the experiment with c-Abl [6], the “effect on H2O2-induced translocation of c-Abl to mitochondria” value is on record as “inhibited”. For the same molecule, the “effect on H2O2-induced localization of PKCd to mitochondria” value on PKCd [7] (30 mM NAC) was “inhibits”.
Regarding `CCCCCCCCCCCCCC(=O)O[C@@H]1[C@@H](C)[C@@]2(O)[C@@H](C=C(CO)C[C@]3(O)C(=O)C(C)=C[C@@H]23)[C@H]2C(C)(C)[C@]12OC(C)=O` [TPA], the cytochrome c release result in the experiment on cytochrome c is on record as “cytochrome c release”. The “translocation of PKCd to mitochondria” value is listed as “translocates to mitochondria” at PKCd [8] and “increases in mitochondrial PKCd” on PKCd [7] (250 nM TPA, 100 nM bryostatin, 0.5 units/ml PLC, 10 μM DOG). In the experiment on MCF-7/neo cells, the apoptosis entry is on record as “induction of apoptosis”. The “cytoplasmic or mitochondrial levels of PKCγ” value at PKCγ is listed as “no detectable effect”. For the same molecule, the “cytoplasmic or mitochondrial levels of PKCζ” value in the experiment with PKCζ was “no detectable effect”. Moreover, the “percent PKCd translocation to mitochondria” value on PKCd [7] (250 nM TPA, scanned immunoblots) is “approximately 40%”.
Take `N.N.[Cl][Pt][Cl]` [cisplatin, cis-platinum]: in the experiment on c-Abl [9], the “c-Abl activity in cytoplasts” value was “no detectable effect”.
As to `CC(=O)N[C@@H](CSC(=O)[C@]1([C@@H](O)C(C)C)NC(=O)[C@H](C)[C@@H]1O)C(=O)O` [lactacystin], the catalase levels entry was “little if any effect” in the experiment with catalase (c-abl−/−arg−/− cells) and “increase in catalase levels” with catalase (wild-type MEFs).
Consider `CC(=O)c1c(O)c(C)c(O)c(Cc2c(O)c3c(c(C(=O)/C=C/c4ccccc4)c2O)OC(C)(C)C=C3)c1O` [rottlerin], for which, in the experiment with cytochrome c, the “effect on H2O2-induced release of cytochrome c” value is “blocked” and the cytochrome c release result was “detectable release of cytochrome c”. The “effect on TPA-induced cytochrome c release” value with cytochrome c (U-937 cells pretreated with rottlerin before TPA) is “significantly blocks”. Besides, in the experiment with U-937 cells (rottlerin alone), the “apoptosis, sub-G1 DNA content” value is given as “low level of apoptosis”. Besides, the “effect on apoptotic response to TPA” value with U-937 cells (rottlerin and TPA) is reported as “significantly attenuated”. Besides, the “effect on H2O2-induced translocation of PKCd to mitochondria” value at PKCd [10] is “inhibits”. In addition, the “effect on H2O2-induced translocation of c-Abl to mitochondria” value with c-Abl [6] is given as “inhibited”. In the experiment on c-Abl [6] (rottlerin alone), the “constitutive levels of mitochondrial c-Abl” value is reported as “no effect”. Moreover, the “effect on TPA-induced localization of PKCd to mitochondria” value on PKCd [7] (10 μM rottlerin) is on record as “abrogated”.
On to cyclosporin A, for which the “effect on H2O2-induced change in Ψ” value in experiment [11] was “abrogated”.
